According to US11155849B2, “IMP-producing microorganism and method of producing IMP using the same” (CJ CHEILJEDANG CORPORATION, priority 2017, dated 2021):

Experiments:
ATCC6872 = assay: Resistance/susceptibility of strain ATCC6872 to substances (minimal medium, 1.7% agar); assay type: cell-based, Corynebacterium stationis
Text: (§1) ATCC6872 (10^7 cells/mL to 10^8 cells/mL) was suspended in a phosphate buffer (pH 7.0) or in a citrate buffer (pH 5.5) in order to prepare an ATCC6872-derived IMP-producing strain, and then mutation was induced by UV treatment. The resultants were washed twice with a 0.85% saline solution, and then diluted and smeared on a medium containing an appropriate concentration of a substance to be resistant to a minimal medium containing 1.7% agar. Thereafter, colonies were obtained. Each colony was cultured in a nutrient medium and cultured in a seed medium for 24 hours. After 3 to 4 days of culturing in a fermentation medium, colonies with the highest amount of IMP accumulated in the culture medium were selected. In order to produce a high-concentration IMP producing-strain, and to provide adenine auxotrophy, guanine leakage, lysozyme susceptibility, 3,4-dihydroproline resistance, streptomycin resistance, azetidine carboxylic acid resistance, thiaproline resistance, azaserine resistance, sulfaguanidine resistance, norvaline resistance, and trimethoprim resistance, the procedures above were performed sequentially for each substance.
(§2) The compositions of the media are as follows: • Minimal medium: 2% glucose, 0.3% sodium sulfate, 0.1% […], 0.3% K2HPO4, 0.3% magnesium sulfate, calcium chloride (10 mg/L), iron sulfate (10 mg/L), zinc sulfate (1 mg/L), manganese chloride (3.6 mg/L), L-cysteine (20 mg/L), calcium pantothenate (10 mg/L), thiamine hydrochloride (5 mg/L), biotin (30 μg/L), adenine (20 mg/L), guanine (20 mg/L), pH 7.3 • Nutrient medium: 1% peptone, 1% meat juice, 0.25% sodium chloride, 1% yeast extract, 2% agar, pH 7.2 • Seed medium: 1% glucose, 1% peptone, 1% meat juice, 1% yeast extract, 0.25% sodium chloride, adenine (100 mg/L), guanine (100 mg/L), pH 7.5 • Fermentation medium: 0.1% sodium glutamate, 1% ammonium chloride, 1.2% magnesium sulfate, 0.01% calcium chloride, iron sulfate (20 mg/L), manganese sulfate (20 mg/L), zinc sulfate (20 mg/L), copper sulfate (5 mg/L), L-cysteine (23 mg/L), alanine (24 mg/L), nicotinic acid (8 mg/L), biotin (45 μg/L), thiamin hydrochloride (5 mg/L), adenine (30 mg/L), 1.9% phosphoric acid (85%), 2.55% glucose, 1.45% fructose

CJI0323 = assay type: cell-based, Corynebacterium stationis; details: strain CJI0323
Text: as §1, §2

| Compound | resistance (ATCC6872) [µg/mL] | resistance (CJI0323) [µg/mL] | Lysozyme susceptibility (ATCC6872) [µg/mL] | Lysozyme susceptibility (CJI0323) [µg/mL] |
| --- | --- | --- | --- | --- |
| O=C(O)C1C=CCN1 (stereo not drawn) [3,4-Dihydroproline] | 1000 | 3500 |  |  |
| [N-]=[N+]=CC(=O)OC[C@H](N)C(=O)O [Azaserine] | 25 | 100 |  |  |
| O=C(O)[C@@H]1CCN1 [Azetidine carboxylic acid] | 5000 | 30000 |  |  |
| CCC[C@H](N)C(=O)O [Norvaline] | 200 | 2000 |  |  |
| [H]/N=C(/N)N[C@H]1[C@H](O)[C@@H](O)[C@H](O[C@@H]2O[C@@H](C)[C@](O)(C=O)[C@H]2O[C@@H]2O[C@@H](CO)[C@H](O)[C@@H](O)[C@@H]2NC)[C@@H](N/C(N)=N\[H])[C@@H]1O [Streptomycin] | 500 | 2000 |  |  |
| [H]/N=C(/N)NS(=O)(=O)c1ccc(N)cc1 [Sulfaguanidine] | 50 | 200 |  |  |
| O=C(O)[C@@H]1CSCN1 [Thiaproline] | 10 | 100 |  |  |
| COc1cc(Cc2cnc(N)nc2N)cc(OC)c1OC [Trimethoprim] | 20 | 100 |  |  |
| Lysozyme |  |  | 80 | 8 |
